≈ marks a conversion by molar mass, not a printed value. Where two headings read alike, the source gives them in different places. Ends that are not written are not given here. Some results are limits rather than exact numbers.

The values below come from publication PMC8548882, “The Trp-rich Antimicrobial Amphiphiles With Intramolecular Aromatic Interactions for the Treatment of Bacterial Infection” (Frontiers in Microbiology, 2021).

The subject of one experiment is S.typhimurium 7731. It counts as cell-based, Salmonella enterica serovar typhimurium C77-31. An excerpt:
(§1) The tested strains were kindly provided by the laboratory of Veterinary Microbiology and Immunology, the College of Veterinary Medicine, Northeast Agricultural University (gram-negative bacteria, Salmonella enterica serovar typhimurium C77-31, Salmonella typhimurium ATCC 14028, Escherichia coli ATCC 25922, Pseudomonas aeruginosa ATCC 27853 and gram-positive bacteria, Staphylococcus aureus ATCC 29213, Staphylococcus aureus ATCC 43300, Staphylococcus epidermidis ATCC 12228, Staphylococcus aureus ATCC 25923).

Another experiment deals with S.typhimurium 14028. It counts as cell-based, Salmonella typhimurium ATCC 14028.
Source text: as §1

In a further experiment the test system is E. coli 25922. It counts as cell-based, Escherichia coli ATCC 25922.
Source text: as §1

For another experiment, the system named is P.aeruginosa 27853. Type of experiment: cell-based, Pseudomonas aeruginosa ATCC 27853.
Source text: as §1
(§2) The famous microtiter dilution, National Committee for Clinical Laboratory Standards, was adopted to measure the antimicrobial ability of the engineering peptides ([Chou et al., 2016]). In brief, the 50μl with serial dilution was incubated with the same volume bacteria (1×10^5CFU/ml in midi-logarithmic phase) in a 96-well plate 18–24h at 37°C. The positive control was the bacteria treated with culture medium and the negative control was merely culture medium. The MICs (minimum inhibitory concentrations) were defined as the lowest concentration of peptides that prevented the production of visible turbidity ([Tossi et al., 2000]).

Another experiment deals with S.aureus 29213. Type of experiment: cell-based, Staphylococcus aureus ATCC 29213.
Source text: as §1, §2

The subject of another experiment is S.epidermidis 12228. Type of experiment: cell-based, Staphylococcus epidermidis ATCC 12228.
Source text: as §1

Another experiment deals with S.aureus 25923. It counts as cell-based, Staphylococcus aureus ATCC 25923.
Source text: as §1, §2

The test system of experiment [1] is hRBC, IPEC-J2, HEK 293T, RAW264.7. On the procedure:
Besides, the therapeutic index of peptide in the mammalian eukaryotic cell (RAW 264.7, HEK 293T, and IPEC J2) was also calculated to study the biocompatibility of peptides.

The next experiment concerns MRSA 43300. Type of experiment: cell-based, Staphylococcus aureus ATCC 43300. The conditions noted are these: microtiter dilution, 1×10^5CFU/ml, 18–24h at 37°C, visible turbidity.
Source text: as §1, §2

Experiment [2] has as its system panel of gram-negative and gram-positive bacteria. The settings on record: over the eight strains of Table 2. On the procedure:
as §2

The subject of a further experiment is IPEC-J2 cells. It counts as cell-based, porcine. The conditions noted are these: 24h. The procedure:
The MTT (3-[4,5 dimethylthiozol-2-yl]-2,5-diphenylterazoliumbromide) dye was selected to analyze the cytotoxicity of peptides against the murine macrophage cell RAW 264.7 (National Collection of Authenticated Cell Cultures, Shanghai, China), human embryonic kidneys (HK293T), and the porcine intestinal epithelial cells (IPEC-J2) as in our previously study ([Li et al., 2020]). In short, the cells (10^4 cells/well) were seeded into 96-well plates and were cultivated overnight. Then the peptides with different final concentration (2μM, 4μM, 8μM, 16μM, 32μM, 64μM, and 128μM) were introduced into the plate and challenged with cells for 24h. After overnight incubation, the 50μl MTT (0.5mg/ml) was added into the cell cultures for 4h. Then the plate was centrifuged to discard the supernatants and obtain the formazan crystals. The DMSO (dimethyl sulfoxide) was employed as a solvent to dissolve the formazan crystals on the bottom of the plate and the optical density was read at 492nm with a microplate reader.

The test system of experiment [3] is Pseudomonas aeruginosa ATCC 27853. Put plainly: Subcutaneous abscess model. The settings on record: 5mg/kg.
Where [4] appears, read: microtiter dilution, 1×10^5CFU/ml, 18–24h at 37°C, visible turbidity.

By MIC is commonly meant the smallest concentration in the dilution series that meets the test's criterion for growth inhibition. Higher therefore signals a less susceptible organism. As to VKKLVKKLVKKAVKKL-NH2 [VL4], the minimal inhibitory concentration (MIC) in the experiment on S.typhimurium 7731 was determined as 16 µM; with S.typhimurium 14028, 32 µM; in the experiment with E. coli 25922, 16 µM; against P.aeruginosa 27853 (27853), 8 µM; against S.aureus 29213 (29213), 16 µM; against S.epidermidis 12228, 32 µM. The compound also came in with an MIC against S.aureus 25923 (25923) of 16 µM. In experiment [1], the “GMTI, geometric mean of TI of various cell lines” value (shortened to “GMTI, geometric mean”) was above 104.47.

In general, IC50 refers to the concentration that gives 50% inhibition. `CC[C@H](C)[C@H](NC(=O)CN)C(=O)NCC(=O)N[C@@H](C)C(=O)N[C@H](C(=O)N[C@@H](CC(C)C)C(=O)N[C@@H](CCCCN)C(=O)N[C@H](C(=O)N[C@@H](CC(C)C)C(=O)N[C@H](C(=O)N[C@H](C(=O)NCC(=O)N[C@@H](CC(C)C)C(=O)N1CCC[C@H]1C(=O)N[C@@H](C)C(=O)N[C@@H](CC(C)C)C(=O)N[C@H](C(=O)N[C@@H](CO)C(=O)N[C@@H](Cc1c[nH]c2ccccc12)C(=O)N[C@H](C(=O)N[C@@H](CCCCN)C(=O)N[C@@H](CCCNC(=N)N)C(=O)N[C@@H](CCCCN)C(=O)N[C@@H](CCCNC(=N)N)C(=O)N[C@@H](CCC(N)=O)C(=O)N[C@@H](CCC(N)=O)C(N)=O)[C@@H](C)CC)[C@@H](C)CC)[C@@H](C)O)[C@@H](C)O)C(C)C)C(C)C` [Melittin, reference compound]: the MIC amounted to 2 µM (≈ 5.69 µg/mL) against P.aeruginosa 27853 (setting [4]), 4 µM (≈ 11.4 µg/mL) against S.aureus 29213 (setting [4]), 2 µM (≈ 5.69 µg/mL) against S.aureus 25923 (setting [4]) and 4 µM (≈ 11.4 µg/mL) in the experiment on MRSA 43300. Further, the “GMMIC, geometric mean of the MICs” value in experiment [2] turned out to be 1.68 µM. Besides, the cell viability result with IPEC-J2 cells (IPEC J2, MTT, 32μM) is reported as “below 5%”. This compound returned an IC50 in the experiment on IPEC-J2 cells (IPEC-J2, MTT, tested 2–128μM) of 3.34 µM. Further, the “GMTI, geometric mean” value in experiment [1] (hRBC, IPEC-J2, HEK 293T, RAW264.7) is 1.71.

As for VKKLVKKLVKKLVKKA-NH2 [VL3], the MIC against S.typhimurium 7731 stood at 32 µM; in the experiment with S.typhimurium 14028, 32 µM; against E. coli 25922, 16 µM; with P.aeruginosa 27853 (27853) it was 8 µM; in the experiment on S.aureus 29213 (29213), 16 µM; in the experiment with S.epidermidis 12228, 32 µM. Also, in the experiment with S.aureus 25923 (25923), the MIC turned out to be 32 µM. For the same compound, the “GMTI, geometric mean” value in experiment [1] is above 122.44.

Turning to `O=C(O)c1cn(C2CC2)c2cc(N3CCNCC3)c(F)cc2c1=O` [ciprofloxacin, reference compound], in experiment [3] (Day 3, ELISA, saline 95.99±4.31), the IL-1β in serum stood at 72.18 ± 3.54 pg/mL. This compound had an IL-1α in serum in experiment [3] (Day 3, ELISA, saline 99.95±4.71) of 80.08 ± 4.04 pg/mL. In [3] (Day 3, ELISA, saline 1020.654±51.08), this compound came in with a TNF-α in serum of 773.35 ± 40.55 pg/mL. For the same compound, in experiment [3] (Day 3, ELISA, saline 1492.65±48.11), the IL-2 in serum is 1250.826 ± 43.60 pg/mL. In addition, in experiment [3] (HE staining, Day 3), the “histological examination of abscess lesion, dermal tissue structures” value is given as “relative integrity”.
